Test system: ACh release, MatTek FT full-thickness model of human skin (human epidermal keratinocytes and human dermal fibroblasts)
Test: MatTek FT tissue model, ACh concentration in the tissue culture media
Type: cell-based
From the text: The MatTek FT™ tissue model was used to determine whether treatment with the test formulation would impact ACh release in vitro. The MatTek FT™ tissue model is a three-dimensional, full-thickness model of human skin formed from cultured human epidermal keratinocytes and human dermal fibroblasts. […] The MatTek FT™ tissue model allows for the performance of preclinical studies to evaluate mechanisms of action for skincare products.
A first untreated tissue model served as a control sample and was maintained in a tissue culture media. A second tissue model was maintained in a tissue culture media and treated daily with the test formulation. A third tissue model was maintained in a tissue culture media and exposed to Neostigmine, an acetylcholinesterase inhibitor that prevents the breakdown of ACh in the tissue culture media. A fourth tissue model was maintained in a tissue culture media, treated daily with the test formulation, and exposed to Neostigmine. The amount of ACh created by each of the tissue models was determined by measuring the ACh concentration in the tissue culture media. The results can be seen in FIG. 1.

CN(C)C(=O)Oc1cccc([N+](C)(C)C)c1 [Neostigmine]
accumulation of ACh (ACh concentration in tissue culture media) (FIG. 1, tissue model exposed to Neostigmine alone (third tissue model), time not stated): about 200 picograms per ml of solution | ACh concentration at 72 hours, in words, effect of presence of neostigmine (FIG. 2, 72 hours, neostigmine in the untreated tissue model): relatively higher concentrations of ACh

— US20250281380A1, “Skincare Formulation for Multi-Modal Reduction of Acetylcholine Concentration and Activity” (JAMRM, LLC, priority 2021, published 2025)
